From patent US20130189358A1, “SAXAGLIPTIN PHARMACEUTICAL FORMULATIONS” (priority 2012, published 2013)
Structures can show the parent of a compound that is named as a salt.

Experiment: Impurity levels 30 days after tablet manufacture (storage stability)
Format: physicochemical
Conditions: 30 days after manufacture, storage at RT (15-29° C.) and NMT 67% RH; % wt impurity
Description: As used herein, unless indicated otherwise, the amount of saxagliptin cyclic amidine in the dosage forms following manufacture of the pharmaceutical dosage forms are measured following storage for 30 days at room temperature conditions (typically manufacture (following storage at room temperature (i.e. typically a temperature of between 15-29° C.), and at a relative humidity of not more than 67%.
Measurements of % wt impurities herein (oxamidine, cyclic amidine, etc) are taken 30 days after manufacture of the formulations [storage at ambient conditions, i.e. room temperature (RT) of between 15-29° C. and not more than 67% relative humidity (RH)].
Formulation #1 Excluding Cosmetic Coating—Analytical Data (30 Days after Tablet Manufacture)

Cyclic Amidine level: <0.03%
Greatest Unknown Impurity level: 0.19%
Oxamidine level: <0.03%
Total Impurity level: 0.23%
Structure (SMILES): N#C[C@@H]1C[C@@H]2C[C@@H]2N1C(=O)[C@@H](N)C12CC3CC(CC(O)(C3)C1)C2 [Saxagliptin HCl, (1S,3S,5S)-2-((2S)-2-amino-2-(3-hydroxyadamantan-1-yl)-acetyl)-2-azabicyclo[3.1.0]hexane-3-carbonitrile]
